# Biological target: GCN2 kinase (Homo sapiens, UniProt Q9P2K8)
# Assay: GCN2 enzyme inhibition assay (Transcreener ADP2 fluorescence polarization)
# Assay type: biochemical
# Details: Enzyme activity for compounds of Formula IV; Ki(app), 280 μM ATP, 25° C.
# Outline: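 ADP formation read by Transcreener FP after a 1 h, 25 °C kinase reaction containing 280 μM ATP, 200 μM (RS)7 substrate and 4 nM GCN2, pH 7.5 Tris buffer. Compounds (0–8 μM final) were added 10 min before ATP. Percent inhibition gave IC50 and apparent Ki via tight-binding fit.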
# Chain of GCN2 kinase (Q9P2K8 whole entry): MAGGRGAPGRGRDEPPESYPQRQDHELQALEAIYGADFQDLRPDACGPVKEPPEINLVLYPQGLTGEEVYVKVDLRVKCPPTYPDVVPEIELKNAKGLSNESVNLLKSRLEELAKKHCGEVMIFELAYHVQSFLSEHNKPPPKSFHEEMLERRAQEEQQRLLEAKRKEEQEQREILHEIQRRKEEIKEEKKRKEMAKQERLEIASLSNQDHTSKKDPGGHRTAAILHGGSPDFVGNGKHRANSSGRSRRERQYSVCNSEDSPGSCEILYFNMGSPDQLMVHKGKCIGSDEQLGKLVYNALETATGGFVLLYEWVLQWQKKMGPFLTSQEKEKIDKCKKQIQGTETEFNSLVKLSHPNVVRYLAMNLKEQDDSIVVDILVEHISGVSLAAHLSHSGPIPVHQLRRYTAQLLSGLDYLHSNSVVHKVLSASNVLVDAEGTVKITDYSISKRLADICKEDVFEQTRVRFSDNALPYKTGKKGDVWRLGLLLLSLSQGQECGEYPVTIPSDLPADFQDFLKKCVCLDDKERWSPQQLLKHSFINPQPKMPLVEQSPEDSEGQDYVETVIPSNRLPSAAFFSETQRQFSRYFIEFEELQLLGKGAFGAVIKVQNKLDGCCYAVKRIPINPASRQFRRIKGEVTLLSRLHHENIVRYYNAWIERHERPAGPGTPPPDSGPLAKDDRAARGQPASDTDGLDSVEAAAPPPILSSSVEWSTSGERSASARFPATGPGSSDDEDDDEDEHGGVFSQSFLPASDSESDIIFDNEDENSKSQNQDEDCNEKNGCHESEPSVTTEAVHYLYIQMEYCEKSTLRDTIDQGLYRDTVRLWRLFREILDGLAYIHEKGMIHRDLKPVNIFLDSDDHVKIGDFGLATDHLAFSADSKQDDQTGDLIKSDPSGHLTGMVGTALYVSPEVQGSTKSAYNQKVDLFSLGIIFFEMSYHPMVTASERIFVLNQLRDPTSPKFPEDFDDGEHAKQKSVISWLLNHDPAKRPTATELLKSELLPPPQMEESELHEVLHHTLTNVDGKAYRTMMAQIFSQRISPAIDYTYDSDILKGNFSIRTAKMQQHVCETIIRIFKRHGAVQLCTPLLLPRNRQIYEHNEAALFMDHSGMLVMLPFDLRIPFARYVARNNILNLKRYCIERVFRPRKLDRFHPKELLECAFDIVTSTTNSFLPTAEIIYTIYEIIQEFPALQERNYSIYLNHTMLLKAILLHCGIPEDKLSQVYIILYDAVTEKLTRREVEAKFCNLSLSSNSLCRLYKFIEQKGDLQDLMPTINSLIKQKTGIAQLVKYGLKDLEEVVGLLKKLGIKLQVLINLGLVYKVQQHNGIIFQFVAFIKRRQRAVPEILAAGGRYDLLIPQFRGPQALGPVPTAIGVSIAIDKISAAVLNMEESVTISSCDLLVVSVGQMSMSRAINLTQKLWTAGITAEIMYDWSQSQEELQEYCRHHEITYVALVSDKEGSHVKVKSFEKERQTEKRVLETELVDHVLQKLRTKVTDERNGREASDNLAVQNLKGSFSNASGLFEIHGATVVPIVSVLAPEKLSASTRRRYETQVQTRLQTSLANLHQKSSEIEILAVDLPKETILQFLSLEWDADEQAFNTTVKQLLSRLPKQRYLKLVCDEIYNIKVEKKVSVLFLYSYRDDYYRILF
row,SMILES,Ki [nM]
1,"CNS(=O)(=O)C1CCN(c2ccnc(-c3cnc4cnc(C(N)=O)cn34)n2)CC1 [IV-252, 3-(4-(4-(N-Methylsulfamoyl)piperidin-1-yl)pyrimidin-2-yl)imidazo[1,2-a]pyrazine-6-carboxamide]",100 to 1000
2,"CCN1CCN(c2ccnc(-c3cnc4cnc(Br)cn34)n2)[C@@H](C)[C@H]1c1cn[nH]c1 (relative stereo) [IV-390, Cis-6-Bromo-3-(4-(4-ethyl-2-methyl-3-(1H-pyrazol-4-yl)piperazin-1-yl)pyrimidin-2-yl)imidazo[1,2-a]pyrazine]",< 10
3,"CS(=O)(=O)NCC1CCN(c2ccnc(-c3cnc4cnc(C(F)F)cn34)n2)C1 (stereo not drawn) [IV-66, N-((1-(2-(6-(Difluoromethyl)imidazo[1,2-a]pyrazin-3-yl)pyrimidin-4-yl)pyrrolidin-3-yl)methyl)methanesulfonamide]",100 to 1000
4,"NC(=O)c1cn2c(-c3nccc(N4CCN5C(=O)CCCC5C4)n3)cnc2cn1 (stereo not drawn) [IV-257, 3-(4-(6-Oxooctahydro-2H-pyrido[1,2-a]pyrazin-2-yl)pyrimidin-2-yl)imidazo[1,2-a]pyrazine-6-carboxamide]",10 to 100
5,"CS(=N)(=O)c1cccc(-c2ccnc(-c3cnc4cnc(C(F)F)cn34)n2)c1 (stereo not drawn) [IV-79, (3-(2-(6-(difluoromethyl)imidazo[1,2-a]pyrazin-3-yl)pyrimidin-4-yl)phenyl)(imino)(methyl)-λ^6-sulfanone]",100 to 1000

# Now from value to compound:
row,Ki [nM],SMILES
1,> 1000,O=C(Nc1cccnc1)[C@@H]1CCCN(c2ccnc(-c3cnc4cnc(C(F)(F)F)cn34)n2)C1 [IV-738]
2,10 to 100,"C[C@@H]1CN(c2ccnc(-c3cnc4cnc(C(F)(F)F)cn34)n2)C[C@@H](c2c[nH]cn2)O1 (racemic) [IV-381, Trans-2-(1H-Imidazol-4-yl)-6-methyl-4-(2-(6-(trifluoromethyl)imidazo[1,2-a]pyrazin-3-yl)pyrimidin-4-yl)morpholine]"
3,100 to 1000,"FC(F)(F)c1cn2c(-c3nccc(N4CCC(c5ccccc5)C4)n3)cnc2cn1 (stereo not drawn) [IV-556, 3-(4-(3-Phenylpyrrolidin-1-yl)pyrimidin-2-yl)-6-(trifluoromethyl)imidazo[1,2-a]pyrazine]"
4,100 to 1000,"CN1CC2(CCN(c3ccnc(-c4cnc5cnc(C(F)(F)F)cn45)n3)C2)OCC1=O (stereo not drawn) [IV-565, 9-Methyl-2-(2-(6-(trifluoromethyl)imidazo[1,2-a]pyrazin-3-yl)pyrimidin-4-yl)-6-oxa-2,9-diazaspiro[4.5]decan-8-one]"
5,100 to 1000,"CC1(C(N)=O)CCCN(c2ccnc(-c3cnc4cnc(C(F)(F)F)cn34)n2)C1 (stereo not drawn) [IV-539, 3-Methyl-1-(2-(6-(trifluoromethyl)imidazo[1,2-a]pyrazin-3-yl)pyrimidin-4-yl)piperidine-3-carboxamide]"
6,100 to 1000,"NC(=O)C1CCN(c2ccnc(-c3cnc4cnc(C(F)(F)F)cn34)n2)C1 (stereo not drawn) [IV-598, 1-(2-(6-(Trifluoromethyl)imidazo[1,2-a]pyrazin-3-yl)pyrimidin-4-yl)pyrrolidine-3-carboxamide]"
7,100 to 1000,"N#C[C@@H]1CCN(c2ccnc(-c3cnc4cnc(C(F)(F)F)cn34)n2)C1 (single isomer, unassigned) [IV-521]"
8,100 to 1000,"OC1CCN(c2ccnc(-c3cnc4cnc(C(F)(F)F)cn34)n2)CC1 [IV-441, 1-(2-(6-(Trifluoromethyl)imidazo[1,2-a]pyrazin-3-yl)pyrimidin-4-yl)piperidin-4-ol]"
9,100 to 1000,"CC1(C(N)=O)CCN(c2ccnc(-c3cnc4cnc(C(F)(F)F)cn34)n2)C1 (stereo not drawn) [IV-581, 3-Methyl-1-(2-(6-(trifluoromethyl)imidazo[1,2-a]pyrazin-3-yl)pyrimidin-4-yl)pyrrolidine-3-carboxamide]"
10,10 to 100,"FC(F)(F)c1cn2c(-c3nccc(N4CC(CN5CCC5)CC(c5cn[nH]c5)C4)n3)cnc2cn1 (stereo not drawn) [IV-681, 3-(4-(3-(Azetidin-1-ylmethyl)-5-(1H-pyrazol-4-yl)piperidin-1-yl)pyrimidin-2-yl)-6-(trifluoromethyl)imidazo[1,2-a]pyrazine]"
11,> 1000,CC(C)(C)n1cc(C(=O)N[C@H]2CCCN(c3ccnc(-c4cnc5cnc(C(F)(F)F)cn45)n3)C2)nn1 [IV-750]
12,100 to 1000,"Cc1nc(C2CCN(c3ccnc(-c4cnc5cnc(C(F)(F)F)cn45)n3)C2)n[nH]1 (stereo not drawn) [IV-641, 3-(4-(3-(5-Methyl-1H-1,2,4-triazol-3-yl)pyrrolidin-1-yl)pyrimidin-2-yl)-6-(trifluoromethyl)imidazo[1,2-a]pyrazine]"
13,100 to 1000,"CC(C)(O)C1CCN(c2ccnc(-c3cnc4cnc(C(F)(F)F)cn34)n2)C1 (stereo not drawn) [IV-520, 2-(1-(2-(6-(Trifluoromethyl)imidazo[1,2-a]pyrazin-3-yl)pyrimidin-4-yl)pyrrolidin-3-yl)propan-2-ol]"
14,10 to 100,"O=C1CCCC2CN(c3ccnc(-c4cnc5cnc(Cl)cn45)n3)CCN12 (single isomer, unassigned) [IV-293, 2-(2-(6-Chloroimidazo[1,2-a]pyrazin-3-yl)pyrimidin-4-yl)octahydro-6H-pyrido[1,2-a]pyrazin-6-one]"

# Same assay, conditions: compounds of Formula II; 280 μM ATP, 4 nM GCN2 kinase
row,Ki [nM],SMILES
1,< 10,"CC1CC(CNS(C)(=O)=O)CN(c2cc(-c3cnc4ccc(C(F)F)nn34)ncn2)C1C (stereo not drawn) [II-592, N-((1-(6-(6-(Difluoromethyl)imidazo[1,2-b]pyridazin-3-yl)pyrimidin-4-yl)-5,6-dimethylpiperidin-3-yl)methyl)methanesulfonamide]"
2,10 to 1000,"CN1CCN(c2cc(-c3cnc4ccc(C(F)F)nn34)ncn2)CC1CS(N)(=O)=O (stereo not drawn) [II-464, (4-(6-(6-(Difluoromethyl)imidazo[1,2-b]pyridazin-3-yl)pyrimidin-4-yl)-1-methylpiperazin-2-yl)methanesulfonamide]"
3,10 to 1000,Cc1noc([C@H]2CN(c3cc(-c4cnc5ccc(C(F)(F)F)nn45)ccn3)C[C@@H](C)O2)n1 [II-744]
4,< 10,"CC1C(NS(C)(=O)=O)CCCN1c1cc(-c2cnc3ccc(C(F)F)nn23)ncn1 (stereo not drawn) [II-601, N-(1-(6-(6-(Difluoromethyl)imidazo[1,2-b]pyridazin-3-yl)pyrimidin-4-yl)-2-methylpiperidin-3-yl)methanesulfonamide]"
5,> 1000,"CC1C(N=S(C)(C)=O)CCCN1c1cc(-c2cnc3ccc(C(F)F)nn23)ncn1 (single isomer, unassigned) [II-582, ((1-(6-(6-(Difluoromethyl)imidazo[1,2-b]pyridazin-3-yl)pyrimidin-4-yl)-2-methylpiperidin-3-yl)imino)dimethyl-λ^6-sulfanone]"
6,10 to 1000,"N#CCC1CCCN(c2cc(-c3cnc4ccc(C(F)(F)F)nn34)ncn2)C1 (stereo not drawn) [II-501, 2-(1-(6-(6-(Trifluoromethyl)imidazo[1,2-b]pyridazin-3-yl)pyrimidin-4-yl)piperidin-3-yl)acetonitrile]"
7,< 10,"CC1C(CNS(C)(=O)=O)N(C(C)C)CCN1c1cc(-c2cnc3ccc(C(F)F)nn23)ncn1 (stereo not drawn) [II-507, N-((4-(6-(6-(Difluoromethyl)imidazo[1,2-b]pyridazin-3-yl)pyrimidin-4-yl)-1-isopropyl-3-methylpiperazin-2-yl)methyl)methanesulfonamide]"
8,10 to 1000,"CS(=N)(=O)CC1CCCN(c2cc(-c3cnc4ccc(C(F)F)nn34)ncn2)C1 (single isomer, unassigned) [II-639, ((1-(6-(6-(Difluoromethyl)imidazo[1,2-b]pyridazin-3-yl)pyrimidin-4-yl)piperidin-3-yl)methyl)(imino)(methyl)-λ^6-sulfanone]"
9,< 10,"[2H]C([2H])([2H])N1CCN(c2cc(-c3cnc4ccc(C(F)F)nn34)ncn2)C(C)C1CNS(C)(=O)=O (stereo not drawn) [II-562, N-((4-(6-(6-(Difluoromethyl)imidazo[1,2-b]pyridazin-3-yl)pyrimidin-4-yl)-3-methyl-1-(methyl-d3)piperazin-2-yl)methyl)methanesulfonamide]"
10,10 to 1000,"CC1CC(CS(C)(=O)=O)C(C)N(c2cc(-c3cnc4ccc(C(F)F)nn34)ncn2)C1 (stereo not drawn) [II-588, 6-(difluoromethyl)-3-[6-[2,5-dimethyl-3-(methylsulfonylmethyl)-1-piperidyl]pyrimidin-4-yl]imidazo[1,2-b]pyridazine]"
11,10 to 1000,"CCS(C)(=O)=NC1CC(C)CN(c2cc(-c3cnc4ccc(C(F)F)nn34)ncn2)C1 (single isomer, unassigned) [II-640, ((1-(6-(6-(Difluoromethyl)imidazo[1,2-b]pyridazin-3-yl)pyrimidin-4-yl)-5-methylpiperidin-3-yl)imino)(ethyl)(methyl)-λ^6-sulfanone]"

# Reference: US10988477B2 (Merck Patent GmbH, priority 2018, dated 2021)
